The values that follow come from patent publication US20230373985A1 (Origenis Gmbh, priority 2020, published 2023).

Broadly, the IC50 is the midpoint of a concentration-inhibition curve.

Test [1] concerns the target T1, wt human TYK2, catalytic site (Homo sapiens, UniProt P29597).
T1 construct: wt human TYK2, catalytic site; purchased SignalChem
T1 sequence (P29597 897-1176 limits assumed): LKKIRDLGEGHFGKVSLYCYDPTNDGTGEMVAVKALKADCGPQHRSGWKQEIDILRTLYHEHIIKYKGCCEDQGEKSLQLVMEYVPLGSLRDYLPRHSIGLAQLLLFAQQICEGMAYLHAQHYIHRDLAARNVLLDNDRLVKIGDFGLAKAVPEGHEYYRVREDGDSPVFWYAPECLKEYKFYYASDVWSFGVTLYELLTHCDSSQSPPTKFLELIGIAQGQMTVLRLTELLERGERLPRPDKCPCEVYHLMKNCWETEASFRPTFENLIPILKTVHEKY
The experiment in a line: HTRF KinEASE assay, TYK2. The class given is biochemical. As to conditions: 1 μM ATP; read-out: IC50, Activity Toward TYK2. The essentials: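 Kinase reaction run at room temperature for at least 30 min: 2 nM TYK2 with 1 μM ATP, or 1 nM JAK2 with 100 μM ATP, each with 1 μM biotin-TK substrate. Phosphorylation detected by HTRF (60 min antibody/XL665) and evaluated from emission ratios.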

Test [2] deals with T2, wt human JAK1, catalytic site (Homo sapiens, UniProt P23458).
T2 construct: wt human JAK1, catalytic site; purchased ThermoFisher
As to the kind of experiment: HTRF KinEASE assay, JAK1. It counts as biochemical. As to conditions: 2.5 μM ATP; read-out: IC50, Activity Toward JAK1. The essentials:
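Compounds in DMSO dilution were mixed with kinase, biotin-TK substrate and ATP and reacted for ≥30 min at room temperature. Detection reagents (antibody, streptavidin-XL665) were read 60 min later as HTRF, with emission ratios analysed per KinEASE protocol.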
(TR-FRET usually uses a lanthanide donor and a delayed reading to cut background.)

T2 sequence (P23458 875-1153 limits assumed): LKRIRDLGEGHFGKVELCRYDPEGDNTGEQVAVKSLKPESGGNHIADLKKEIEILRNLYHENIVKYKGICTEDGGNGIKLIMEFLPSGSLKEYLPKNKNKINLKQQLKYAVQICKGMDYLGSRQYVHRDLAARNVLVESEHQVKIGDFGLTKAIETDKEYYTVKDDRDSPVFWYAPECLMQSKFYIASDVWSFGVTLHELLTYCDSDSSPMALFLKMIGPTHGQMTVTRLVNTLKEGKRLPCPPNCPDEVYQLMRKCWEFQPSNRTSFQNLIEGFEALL

As for `NC(=O)c1nn(-c2c(Cl)cccc2Cl)nc1Nc1ccc(CC(=O)N2CC(F)C2)nc1` [compound 152, 2-(2,6-dichlorophenyl)-5-((6-(2-(3-fluoroazetidin-1-yl)-2-oxoethyl)pyridin-3-yl)amino)-2H-1,2,3-triazole-4-carboxamide], the IC50 in test [1] fell in the range of 100 to 1000 nM; in test [2], 10 to 100 nM.

As to `Cc1ncnn1-c1ccc(Nc2cn(-c3c(Cl)cccc3Cl)nc2C(N)=O)nc1` [compound 430, 1-(2,6-dichlorophenyl)-4-((5-(5-methyl-1H-1,2,4-triazol-1-yl)pyridin-2-yl)amino)-1H-pyrazole-3-carboxamide], the IC50 in test [1] and in test [2] was 100 to 1000 nM in each case.

Take `NC(=O)c1nn(-c2c(Cl)cccc2Cl)cc1Nc1ccc(-n2nnc3c2CCCC3)cc1` [compound 73, 1-(2,6-dichlorophenyl)-4-((4-(4,5,6,7-tetrahydro-1H-benzo[d][1,2,3]triazol-1-yl)phenyl)amino)-1H-pyrazole-3-carboxamide]: the IC50 in test [1] fell in the range of 10 to 100 nM; in test [2], 100 to 1000 nM.

In the case of `N#Cc1cccc(Cl)c1-n1cc(Nc2ccc(C(=O)N3CCOCC3)cc2)c(C(N)=O)n1` [compound 458, 1-(2-chloro-6-cyanophenyl)-4-((4-(morpholine-4-carbonyl)phenyl)amino)-1H-pyrazole-3-carboxamide], the values for the IC50 in test [1] and in test [2] were less than 10 nM and 10 to 100 nM, respectively.

On to `Cc1ccn(-c2ccc(Nc3cn(-c4c(Cl)cccc4Cl)nc3C(N)=O)cc2)n1` [compound 75, 1-(2,6-dichlorophenyl)-4-((4-(3-methyl-1H-pyrazol-1-yl)phenyl)amino)-1H-pyrazole-3-carboxamide], for which the IC50 in test [1] and in test [2] was 100 to 1000 nM each time.

In the case of `CN1CCN(C(=O)c2ccc(Nc3cn(-c4c(Cl)cccc4Cl)nc3C(N)=O)nc2)CC1` [compound 370, 1-(2,6-dichlorophenyl)-4-((5-(4-methylpiperazine-1-carbonyl)pyridin-2-yl)amino)-1H-pyrazole-3-carboxamide], the IC50 in test [1] was in the range of 10 to 100 nM; in test [2], 100 to 1000 nM.

Turning to `COC(=O)Cn1cc(Nc2cn(-c3c(Cl)cccc3Cl)nc2C(N)=O)cn1` [compound 462, methyl_2-(4-((3-carbamoyl-1-(2,6-dichlorophenyl)-1H-pyrazol-4-yl)amino)-1H-pyrazol-1-yl)acetate], the IC50 in test [1] lay within 100 to 1000 nM; in test [2] it was 10 to 100 nM.

For `Cc1cnnn1-c1ccc(Nc2cn(-c3c(Cl)cccc3Cl)nc2C(N)=O)nc1` [compound 432, 1-(2,6-dichlorophenyl)-4-((5-(5-methyl-1H-1,2,3-triazol-1-yl)pyridin-2-yl)amino)-1H-pyrazole-3-carboxamide], the IC50 in test [1] lay within 100 to 1000 nM; in test [2] it was 10 to 100 nM.

On to `NC(=O)c1nn(-c2c(Cl)cccc2Cl)cc1Nc1ccc(C(=O)N2CC(F)C2)cn1` [compound 449, 1-(2,6-dichlorophenyl)-4-((5-(3-fluoroazetidine-1-carbonyl)pyridin-2-yl)amino)-1H-pyrazole-3-carboxamide], for which the IC50 in test [1] and in test [2] was 100 to 1000 nM each time.

For the compound `Cn1cnnc1-c1ccc(Nc2cn(-c3c(Cl)cccc3Cl)nc2C(N)=O)cn1` [compound 360, 1-(2,6-dichlorophenyl)-4-((6-(4-methyl-4H-1,2,4-triazol-3-yl)pyridin-3-yl)amino)-1H-pyrazole-3-carboxamide], the IC50 is 10 to 100 nM in test [1] and 100 to 1000 nM in test [2].

As for `Cn1nnnc1-c1ccc(Nc2nn(-c3c(Cl)cccc3Cl)nc2C(N)=O)nc1` [compound 158, 2-(2,6-dichlorophenyl)-5-((5-(1-methyl-1H-tetrazol-5-yl)pyridin-2-yl)amino)-2H-1,2,3-triazole-4-carboxamide], the IC50 in test [1] and in test [2] was 10 to 100 nM each time.

In the case of `NC(=O)c1nn(-c2c(Cl)cccc2Cl)cc1Nc1ccc(C(=O)N2CCCCCC2)cc1` [compound 95, 4-((4-(azepane-1-carbonyl)phenyl)amino)-1-(2,6-dichlorophenyl)-1H-pyrazole-3-carboxamide], the IC50 in test [1] was less than 10 nM; in test [2], 100 to 1000 nM.

Consider `NC(=O)c1nn(-c2c(Cl)cccc2Cl)cc1Nc1ccc(C(=O)N2CC[C@H](F)C2)cn1` [compound 367, (S)-1-(2,6-dichlorophenyl)-4-((5-(3-fluoropyrrolidine-1-carbonyl)pyridin-2-yl)amino)-1H-pyrazole-3-carboxamide], for which the IC50 in test [1] was in the range of 10 to 100 nM; in test [2] it was 100 to 1000 nM.

On to `CN(C)[C@H]1CCN(C(=O)c2ccc(Nc3cn(-c4c(Cl)cccc4Cl)nc3C(N)=O)cn2)C1` [compound 354, (S)-1-(2,6-dichlorophenyl)-4-((6-(3-(dimethylamino)pyrrolidine-1-carbonyl)pyridin-3-yl)amino)-1H-pyrazole-3-carboxamide], for which the 50% inhibitory concentration (IC50) in test [1] lay within 10 to 100 nM; in test [2], 100 to 1000 nM.

With `COCCNC(=O)c1ccc(Nc2nn(-c3c(Cl)cccc3Cl)nc2C(N)=O)cc1` [compound 123, 2-(2,6-dichlorophenyl)-5-((4-((2-methoxyethyl)carbamoyl)phenyl)amino)-2H-1,2,3-triazole-4-carboxamide], the IC50 in test [1] was 10 to 100 nM; in test [2] it was less than 10 nM.

For the compound `NC(=O)c1nn(-c2c(Cl)cccc2Cl)cc1Nc1ccc(C(=O)N2CCCC2)cn1` [compound 226, 1-(2,6-dichlorophenyl)-4-((5-(pyrrolidine-1-carbonyl)pyridin-2-yl)amino)-1H-pyrazole-3-carboxamide], the results for the IC50 in test [1] and in test [2] were 10 to 100 nM and 100 to 1000 nM, respectively.

In the case of `NC(=O)c1nn(-c2c(Cl)cccc2Cl)nc1Nc1ccc(C(=O)N2CC(O)C2)cn1` [compound 154, 2-(2,6-dichlorophenyl)-5-((5-(3-hydroxyazetidine-1-carbonyl)pyridin-2-yl)amino)-2H-1,2,3-triazole-4-carboxamide], the IC50 in test [1] and in test [2] was 10 to 100 nM each time.

As to `CC(C)(C)C(=O)c1ccc(Nc2cn(-c3c(Cl)cccc3Cl)nc2C(N)=O)cc1` [compound 41, 1-(2,6-dichlorophenyl)-4-((4-pivaloylphenyl)amino)-1H-pyrazole-3-carboxamide], the IC50 in test [1] and in test [2] was 100 to 1000 nM throughout.

On to `CCn1ncnc1-c1ccc(Nc2nn(-c3c(Cl)cccc3Cl)nc2C(N)=O)nc1` [compound 142, 2-(2,6-dichlorophenyl)-5-((5-(1-ethyl-1H-1,2,4-triazol-5-yl)pyridin-2-yl)amino)-2H-1,2,3-triazole-4-carboxamide], for which the IC50 in test [1] lay in the range of 100 to 1000 nM; in test [2], 10 to 100 nM.

As to `NC(=O)c1nn(-c2c(F)cccc2Cl)cc1Nc1ccc(-n2cc3c(n2)CCOC3)cc1` [compound 209, 1-(2-chloro-6-fluorophenyl)-4-((4-(6,7-dihydropyrano[4,3-c]pyrazol-2(4H)-yl)phenyl)amino)-1H-pyrazole-3-carboxamide], the results for the IC50 in test [1] and in test [2] were 10 to 100 nM and 100 to 1000 nM, respectively.

Consider `NC(=O)c1nn(-c2c(Cl)cccc2Cl)nc1Nc1ccc(C(=O)N2CCSCC2)cc1` [compound 170, 2-(2,6-dichlorophenyl)-5-((4-(thiomorpholine-4-carbonyl)phenyl)amino)-2H-1,2,3-triazole-4-carboxamide], for which the IC50 in test [1] and in test [2] was less than 10 nM throughout.
